Active and inactive are the calls of the source. The calls are words filed in the database; no cut-off is given here.
Columns and labels:
[1] = biological target: T1, Neuronal acetylcholine receptor; alpha3/beta4 (Homo sapiens, UniProt P30926+P32297); experiment: Displacement of [3H]-epibatidine from human alpha3beta4 nACh receptor expressed in HEK293 cells preincubated for 5 mins followed by radioligand addition by beta counting analysis; type: cell-based
[2] = biological target: Neuronal acetylcholine receptor; alpha4/beta2 (Rattus norvegicus, UniProt P09483+P12390); experiment: Displacement of [3H]-epibatidine from rat alpha4beta2 nACh receptor expressed in rat cortical membrane preincubated for 30 mins followed by radioligand addition by […] analysis; type: cell membranes
Sequence of Neuronal acetylcholine receptor; alpha4/beta2 (P09483 whole entry): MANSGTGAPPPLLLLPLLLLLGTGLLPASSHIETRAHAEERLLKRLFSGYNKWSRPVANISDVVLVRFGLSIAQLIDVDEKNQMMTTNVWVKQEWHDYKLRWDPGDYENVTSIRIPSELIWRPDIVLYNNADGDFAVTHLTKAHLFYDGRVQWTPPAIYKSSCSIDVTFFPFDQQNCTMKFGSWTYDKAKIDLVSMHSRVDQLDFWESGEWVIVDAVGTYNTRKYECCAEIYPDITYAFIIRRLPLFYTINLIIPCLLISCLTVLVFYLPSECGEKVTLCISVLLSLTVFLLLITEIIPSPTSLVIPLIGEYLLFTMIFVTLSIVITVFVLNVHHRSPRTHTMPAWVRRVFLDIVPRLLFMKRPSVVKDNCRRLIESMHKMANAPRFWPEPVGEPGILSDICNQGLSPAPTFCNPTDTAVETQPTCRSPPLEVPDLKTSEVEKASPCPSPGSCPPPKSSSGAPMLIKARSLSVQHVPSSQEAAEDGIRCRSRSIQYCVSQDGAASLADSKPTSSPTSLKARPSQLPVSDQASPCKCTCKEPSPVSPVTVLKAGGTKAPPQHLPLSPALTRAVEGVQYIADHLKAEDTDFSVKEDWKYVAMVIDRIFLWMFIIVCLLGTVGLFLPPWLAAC
Sequence of Neuronal acetylcholine receptor; alpha4/beta2 (P12390 whole entry): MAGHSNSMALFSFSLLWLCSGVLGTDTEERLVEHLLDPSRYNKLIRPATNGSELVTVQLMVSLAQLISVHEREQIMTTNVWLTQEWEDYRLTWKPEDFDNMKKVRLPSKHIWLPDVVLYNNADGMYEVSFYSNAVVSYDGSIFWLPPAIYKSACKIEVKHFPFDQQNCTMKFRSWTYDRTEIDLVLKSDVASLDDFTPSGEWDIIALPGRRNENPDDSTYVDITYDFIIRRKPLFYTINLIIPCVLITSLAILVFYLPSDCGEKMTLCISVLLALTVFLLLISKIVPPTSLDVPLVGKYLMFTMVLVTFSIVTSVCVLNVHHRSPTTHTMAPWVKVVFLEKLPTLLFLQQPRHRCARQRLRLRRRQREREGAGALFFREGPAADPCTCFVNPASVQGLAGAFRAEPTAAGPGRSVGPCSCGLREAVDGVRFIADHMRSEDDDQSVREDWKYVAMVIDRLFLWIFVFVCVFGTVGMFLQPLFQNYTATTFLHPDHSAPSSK

[3] = biological target: Neuronal acetylcholine receptor subunit alpha-7 (Rattus norvegicus, UniProt Q05941); experiment: Displacement of [125I] alpha bungarotoxin from rat alpha7 nACh receptor expressed in rat hippocampal membrane preincubated for 30 mins followed by radioligand addition by gamma counting analysis; type: cell membranes, Hippocampus
Sequence of Neuronal acetylcholine receptor subunit alpha-7 (Rattus norvegicus, UniProt Q05941) (Q05941 whole entry): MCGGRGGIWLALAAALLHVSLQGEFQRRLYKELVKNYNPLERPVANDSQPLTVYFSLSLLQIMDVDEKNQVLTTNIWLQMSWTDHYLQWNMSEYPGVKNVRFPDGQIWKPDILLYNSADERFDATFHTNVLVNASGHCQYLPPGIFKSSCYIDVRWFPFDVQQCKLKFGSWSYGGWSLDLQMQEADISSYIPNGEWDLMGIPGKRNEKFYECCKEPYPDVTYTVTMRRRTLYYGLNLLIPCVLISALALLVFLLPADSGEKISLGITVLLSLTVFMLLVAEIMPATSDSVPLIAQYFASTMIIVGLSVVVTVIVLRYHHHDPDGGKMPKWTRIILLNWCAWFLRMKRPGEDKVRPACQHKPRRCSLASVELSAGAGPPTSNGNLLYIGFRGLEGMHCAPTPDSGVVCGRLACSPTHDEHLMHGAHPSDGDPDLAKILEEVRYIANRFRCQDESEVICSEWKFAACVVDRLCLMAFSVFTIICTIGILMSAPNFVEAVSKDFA

Homo sapiens [4] = species: Homo sapiens; experiment: Selectivity ratio of Ki for rat alpha4beta2 nACh receptor to Ki for human alpha3beta4 nACh receptor
Homo sapiens [5] = species: Homo sapiens; experiment: Selectivity ratio of Ki for rat alpha7 nACh receptor to Ki for human alpha3beta4 nACh receptor
[6] = biological target: T2, Neuronal acetylcholine receptor; alpha4/beta2 (Homo sapiens) (UniProt P17787+P43681); experiment: Agonist activity at human alpha4beta2 nACh receptor expressed in rat […] cells assessed as increase in current amplitudes at 0.1 to 100 uM after 2 to 3 days by patch clamp assay; type: cell-based
[7] = biological target: T1, Neuronal acetylcholine receptor; alpha3/beta4; experiment: Agonist activity at human alpha3beta4 nACh receptor expressed in rat […] cells assessed as increase in current amplitudes at 0.1 to 100 uM after 2 to 3 days by patch clamp assay relative to acetylcholine; type: cell-based
[8] = biological target: T3, Neuronal acetylcholine receptor subunit alpha-7 (Homo sapiens, UniProt P36544); experiment: Agonist activity at human alpha7 nACh receptor expressed in rat GH4C1 cells assessed as increase in current amplitudes at 0.1 to 100 uM after 2 to 3 days by patch clamp assay; type: cell-based; conditions: GH4-C1
T3 sequence (P36544 whole entry): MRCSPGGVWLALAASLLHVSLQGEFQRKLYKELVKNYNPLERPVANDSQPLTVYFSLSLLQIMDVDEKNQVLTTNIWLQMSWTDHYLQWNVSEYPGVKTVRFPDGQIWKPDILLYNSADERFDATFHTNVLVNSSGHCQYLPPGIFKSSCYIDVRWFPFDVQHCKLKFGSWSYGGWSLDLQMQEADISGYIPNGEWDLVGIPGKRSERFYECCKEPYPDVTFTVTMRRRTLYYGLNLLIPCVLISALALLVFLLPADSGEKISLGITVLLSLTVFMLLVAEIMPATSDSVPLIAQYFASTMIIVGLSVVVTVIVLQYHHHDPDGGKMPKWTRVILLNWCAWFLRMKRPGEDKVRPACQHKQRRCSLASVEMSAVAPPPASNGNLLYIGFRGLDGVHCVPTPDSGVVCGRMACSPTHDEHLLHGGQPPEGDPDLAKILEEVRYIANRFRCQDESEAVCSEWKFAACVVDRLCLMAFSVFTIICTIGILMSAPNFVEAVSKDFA

[9] = biological target: T2, Neuronal acetylcholine receptor; alpha4/beta2 (Homo sapiens); experiment: Antagonist activity at human alpha4beta2 nACh receptor; type: protein-complex assay
[10] = biological target: T1, Neuronal acetylcholine receptor; alpha3/beta4; experiment: Antagonist activity at human alpha3beta4 nACh receptor; type: protein-complex assay
[11] = biological target: T3, Neuronal acetylcholine receptor subunit alpha-7; experiment: Agonist activity at human alpha7 nACh receptor expressed in rat GH4C1 cells assessed as increase in current amplitudes after 2 to 3 days by patch clamp assay; type: cell-based, GH4-C1
[12] = biological target: T1, Neuronal acetylcholine receptor; alpha3/beta4; experiment: Agonist activity at human alpha3beta4 nACh receptor expressed in rat GH4C1 cells assessed as increase in current amplitudes after 2 to 3 days by patch clamp assay; type: cell-based, GH4-C1

T1 sequence (P30926 whole entry): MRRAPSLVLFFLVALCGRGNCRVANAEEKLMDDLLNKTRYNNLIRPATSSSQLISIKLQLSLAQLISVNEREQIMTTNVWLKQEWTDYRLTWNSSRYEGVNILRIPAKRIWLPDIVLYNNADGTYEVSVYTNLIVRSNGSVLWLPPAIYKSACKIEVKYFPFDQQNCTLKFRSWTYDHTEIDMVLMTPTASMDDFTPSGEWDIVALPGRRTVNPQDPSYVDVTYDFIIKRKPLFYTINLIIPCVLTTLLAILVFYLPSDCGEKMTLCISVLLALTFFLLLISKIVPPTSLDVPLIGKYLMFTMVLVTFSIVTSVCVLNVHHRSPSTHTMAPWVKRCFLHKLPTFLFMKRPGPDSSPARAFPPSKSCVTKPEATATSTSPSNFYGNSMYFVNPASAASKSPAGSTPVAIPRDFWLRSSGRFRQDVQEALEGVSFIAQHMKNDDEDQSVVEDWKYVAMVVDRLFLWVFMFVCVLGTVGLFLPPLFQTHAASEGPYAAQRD
T1 sequence (P32297 whole entry): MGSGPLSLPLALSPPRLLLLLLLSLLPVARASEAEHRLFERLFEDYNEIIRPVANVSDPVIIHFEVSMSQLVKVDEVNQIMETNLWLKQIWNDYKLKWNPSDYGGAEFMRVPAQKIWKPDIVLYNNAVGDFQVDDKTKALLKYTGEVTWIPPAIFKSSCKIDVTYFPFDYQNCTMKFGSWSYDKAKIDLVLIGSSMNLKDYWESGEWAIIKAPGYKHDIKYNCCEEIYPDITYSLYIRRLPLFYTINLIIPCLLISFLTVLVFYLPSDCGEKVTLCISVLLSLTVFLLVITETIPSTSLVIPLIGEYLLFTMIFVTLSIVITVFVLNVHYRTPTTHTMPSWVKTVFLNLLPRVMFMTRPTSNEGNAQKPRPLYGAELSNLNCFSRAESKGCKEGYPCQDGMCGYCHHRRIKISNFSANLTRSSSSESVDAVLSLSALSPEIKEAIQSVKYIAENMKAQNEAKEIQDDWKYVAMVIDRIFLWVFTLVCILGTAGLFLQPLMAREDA

SMILES | Ki [1] | Ki [2] | Ki [3] | Ratio Ki (Homo sapiens [4]) | Ratio Ki (Homo sapiens [5]) | Activity [6] | Emax [7] | Activity [8] | inhibition [9] | inhibition [10] | EC50 [11] | EC50 [12]
Fc1cc(Br)cc(C2=NCCCC2)c1 | 48 nM | 1770 nM | 204 nM | 37 | 4.3 | – | – | – | – | – | – | –
Ic1cccc(C2=NCCCC2)c1 | 4.7 nM | 3790 nM | 11.3 nM | 806 | 2.4 | inactive | 60% | inactive | inactive | inactive | – | –
Oc1cccc([C@H]2C[C@@H]3CC[C@H]2N3)c1 (racemic) | 80 nM | 127 nM | 609 nM | 1.6 | 7.6 | – | – | – | – | – | – | –
Oc1cccc(C2=NCCCC2)c1 | 680 nM | 32000 nM | 9300 nM | 47 | 14 | – | – | – | – | – | – | –
Brc1cc(Br)cc(C2=NCCCC2)c1 | 70.8 nM | 18800 nM | 343 nM | 266 | 4.8 | – | – | – | inactive | inactive | – | –
Cc1cccc(C2=NCCCC2)c1 | 155 nM | 1450 nM | 384 nM | 9.4 | 2.5 | – | – | – | – | – | – | –
c1cncc(C2=NCCCC2)c1 [ANABASEINE] | 107 nM | 67 nM | 32 nM | 0.6 | 0.3 | – | – | – | – | – | – | –
OCc1cc(F)cc(C2=NCCCC2)c1 | 80 nM | 744 nM | 821 nM | 9.3 | 10 | – | – | – | – | – | – | –
OCc1cccc([C@H]2C[C@@H]3CC[C@H]2N3)c1 (racemic) | 92 nM | 429 nM | 1800 nM | 4.7 | 20 | – | – | – | – | – | – | –
Clc1cccc(C2=NCCCC2)c1 | 77.2 nM | 11500 nM | 394 nM | 149 | 5.1 | – | – | – | – | – | – | –
Brc1cccc(C2=NCCCC2)c1 | 29.8 nM | 5020 nM | 43.2 nM | 168 | 1.5 | – | – | – | – | – | – | –
Fc1cccc(C2=NCCCC2)c1 | 108 nM | 2040 nM | 2370 nM | 19 | 22 | – | – | – | – | – | – | –
c1ccc(C2=NCCCC2)cc1 | 194 nM | 2080 nM | 2400 nM | 11 | 12 | – | – | – | – | – | – | –
OCc1cccc(C2=NCCCC2)c1 | 80 nM | 35000 nM | 158 nM | 438 | 2 | – | – | – | – | – | 60000 nM | 20000 nM
